Test results taken from patent US8815503B2, “Compositions and methods for immunostimulatory RNA oligonucleotides” (Rheinische Friedrich-Wilhelms-Universitat Bonn, priority 2005, dated 2014).

Each substance was assayed on PBMC (assay: 193 ssRNA 4mer-motif library screen: IL-12 (IL-12p40) production in PBMC of six donors, poly-L-Arg complexation, ELISA at 44 hours, IL-12 index and adjusted IL-12 index). Conditions: 193 ssRNA oligonucleotide library; data from six individual donors summarized; ascending order.
Format: cell-based, human
Set-up: key to Adjusted IL-12 index Mean: IL-12 index (ratio to 9.2sense) minus donor mean, averaged over 6 donors
Protocol: FIG. 9: PBMC of six different healthy donors were isolated and stimulated with poly-L-arginine complexed ssRNA oligonucleotides in duplicates. 44 hours after stimulation IL-12p40 production was assessed in supernatant via ELISA. For all tested ssRNA oligonucleotides (table 3), the mean values of the measured duplicates were normalized to the positive control ssRNA oligonucleotide 9.2sense (5′-AGCUUAACCUGUCCUUCAA (SEQ ID NO: 194)) by dividing the mean value of tested oligonucleotide by the mean value of 9.2sense (=IL-12 index of a given oligonucleotide). Next, all individual IL-12 indices were adjusted to the mean value of all IL-12 indices by subtracting the mean value of all IL-12 indices from the individual IL-12 index of a given oligonucleotide (=adjusted IL-12 index). Data from six individual donors were summarized and were assorted in ascending order displaying the corresponding SEM (for a complete listing including numerical data see table 4). FIG. 9A discloses SEQ ID NOS 460-509, respectively, in order of appearance. FIG. 9B discloses SEQ ID NOS 510-559, respectively, in order of appearance. FIG. 9C discloses SEQ ID NOS 560-609, respectively, in order of appearance. FIG. 9D discloses SEQ ID NOS 610-652, respectively, in order of appearance.
All 193 ssRNA oligonucleotides were tested on PBMC of six individual healthy donors using poly-L-Arg for complexation. At 44 hours after stimulation with RNA oligonucleotides, supernatants were collected and IL-12 production was measured by ELISA. Prior to statistical analysis the raw data were processed as follows: for each cell culture plate the mean IL-12 value of the experimental duplicates for each tested ssRNA oligonucleotide were normalized to the ssRNA oligonucleotide RNA9.2sense (5′-AGCUUAACCUGUCCUUCAA-3′ (SEQ ID NO: 194)). This standard RNA oligonucleotide was included as a positive control on all cell culture plates. Normalization was performed by calculating the ratio of IL-12 induced by the tested oligonucleotide and IL-12 induced by the standard oligonucleotide RNA9.2sense. Thus, for each tested oligonucleotide in an individual donor a mean ratio of IL-12 induction was obtained. In the following, this mean of the ratios is referred to as IL-12 index (one value of IL-12 index per donor). […] The corresponding IL-12 index of oligonucleotide ANP175 for donor 3 was calculated to be 1.90 (=1725 pg/ml divided by 908 pg/ml).
Next, the means of all IL-12 indices for every individual donor were calculated. Then the adjusted IL-12 indices were calculated as IL-12 index minus the mean of all IL-12 indices of one individual donor. […] The adjusted IL-12 index of ANP175 was calculated: 1.90 minus 0.44=1.46. The adjusted IL-12 indices from all six donors were summarized by calculating the means and the corresponding standard error of mean. The data are depicted in ascending order (FIG. 9A, B, C, D). The adjusted IL-12 indices of the top thirty ssRNA oligonucleotides of all six donors were compared using a two-tailed Student's t-test (FIG. 10). For most combinations tested, a significant difference was observed when the interval between the analyzed pairs was at least eight or nine places in the assortment.

Row | Substance | Adjusted IL-12 index Mean
1 | AAAAAAAUUCGAAAAAAAA (RNA, backbone not given here) [ANP-Oligo 186] | −0.08
2 | AAAAAAAAGGAAAAAAAAA (RNA, backbone not given here) [ANP-Oligo 009] | −0.66
3 | AAAAAAACCUGAAAAAAAA (RNA, backbone not given here) [ANP-Oligo 072] | −0.51
4 | AAAAAAAUUCCAAAAAAAA (RNA, backbone not given here) [ANP-Oligo 185] | −0.08
5 | AAAAAAAGAUGAAAAAAAA (RNA, backbone not given here) [ANP-Oligo 108] | 0.08
6 | AAAAAAAGCCCAAAAAAAA (RNA, backbone not given here) [ANP-Oligo 113] | −0.54
7 | AAAAAAAGACGAAAAAAAA (RNA, backbone not given here) [ANP-Oligo 102] | −0.64
8 | AAAAAAACAAUAAAAAAAA (RNA, backbone not given here) [ANP-Oligo 052] | −0.37
9 | AAAAAAACCUCAAAAAAAA (RNA, backbone not given here) [ANP-Oligo 071] | −0.56
10 | AAAAAAAUCAGAAAAAAAA (RNA, backbone not given here) [ANP-Oligo 159] | −0.28
11 | AAAAAAAUGCUAAAAAAAA (chemistry not given here) [ANP-Oligo 175] | 1.85
12 | AAAAAAAACCCAAAAAAAA (RNA, backbone not given here) [ANP-Oligo 017] | −0.66
13 | AAAAAAACAAGAAAAAAAA (RNA, backbone not given here) [ANP-Oligo 051] | −0.66
14 | AAAAAAAAUGGAAAAAAAA (RNA, backbone not given here) [ANP-Oligo 045] | −0.29
15 | AAAAAAAUUGUAAAAAAAA (RNA, backbone not given here) [ANP-Oligo 190] | 1.6
16 | AAAAAAAAUAUAAAAAAAA (RNA, backbone not given here) [ANP-Oligo 040] | −0.04
17 | AAAAAAAAGCCAAAAAAAA (RNA, backbone not given here) [ANP-Oligo 029] | −0.66
18 | AAAAAAACUUCAAAAAAAA (RNA, backbone not given here) [ANP-Oligo 095] | −0.39
19 | AAAAAAAUUGCAAAAAAAA (RNA, backbone not given here) [ANP-Oligo 188] | 1.62

Row | Substance | Adjusted IL-12 index Mean
20 | AAAAAAAGAGCAAAAAAAA (RNA, backbone not given here) [ANP-Oligo 104] | −0.61
21 | AAAAAAACAACAAAAAAAA (RNA, backbone not given here) [ANP-Oligo 050] | −0.64
22 | AAAAAAAUGCGAAAAAAAA (RNA, backbone not given here) [ANP-Oligo 174] | 0.28
23 | AAAAAAAACAUAAAAAAAA (RNA, backbone not given here) [ANP-Oligo 016] | −0.37
24 | AAAAAAAUCGGAAAAAAAA (RNA, backbone not given here) [ANP-Oligo 165] | −0.26
25 | AAAAAAAUUUCAAAAAAAA (RNA, backbone not given here) [ANP-Oligo 191] | 0.27
26 | AAAAAAAGGACAAAAAAAA (RNA, backbone not given here) [ANP-Oligo 122] | −0.43
27 | AAAAAAAAUUUAAAAAAAA (RNA, backbone not given here) [ANP-Oligo 049] | −0.07
28 | AAAAAAAGGAUAAAAAAAA (RNA, backbone not given here) [ANP-Oligo 124] | 0.63
29 | AAAAAAAUCCGAAAAAAAA (RNA, backbone not given here) [ANP-Oligo 162] | −0.5
30 | AAAAAAACUAGAAAAAAAA (RNA, backbone not given here) [ANP-Oligo 087] | −0.03
31 | AAAAAAACAUUAAAAAAAA (RNA, backbone not given here) [ANP-Oligo 061] | −0.23
32 | AAAAAAACUGGAAAAAAAA (RNA, backbone not given here) [ANP-Oligo 093] | −0.31
33 | AAAAAAAGCUGAAAAAAAA (RNA, backbone not given here) [ANP-Oligo 120] | −0.38
34 | AAAAAAACUUUAAAAAAAA (RNA, backbone not given here) [ANP-Oligo 097] | −0.1
35 | AAAAAAAGUGGAAAAAAAA (RNA, backbone not given here) [ANP-Oligo 141] | 0.5
36 | AAAAAAAAUUGAAAAAAAA (RNA, backbone not given here) [ANP-Oligo 048] | −0.35
37 | AAAAAAAUACUAAAAAAAA (RNA, backbone not given here) [ANP-Oligo 151] | 0.3
38 | AAAAAAAAUCCAAAAAAAA (RNA, backbone not given here) [ANP-Oligo 041] | −0.48

Row | Substance | Adjusted IL-12 index Mean
39 | AAAAAAAUAAUAAAAAAAA (RNA, backbone not given here) [ANP-Oligo 148] | 0.7
40 | AAAAAAACACCAAAAAAAA (RNA, backbone not given here) [ANP-Oligo 053] | −0.67
41 | AAAAAAAGAGGAAAAAAAA (RNA, backbone not given here) [ANP-Oligo 105] | −0.62
42 | AAAAAAAGAGUAAAAAAAA (RNA, backbone not given here) [ANP-Oligo 106] | 0.21
43 | AAAAAAAGUAGAAAAAAAA (RNA, backbone not given here) [ANP-Oligo 135] | 0.67
44 | AAAAAAACCGCAAAAA4AA (DNA AAAAAAACCGCAAAAAAAA; RNA, backbone not given here) [ANP-Oligo 068] | −0.56
45 | AAAAAAAUCAUAAAAAAAA (RNA, backbone not given here) [ANP-Oligo 160] | 0.1
46 | AAAAAAAUCUCAAAAAAAA (RNA, backbone not given here) [ANP-Oligo 167] | 0.37
47 | AAAAAAACCCCAAAAAAAA (RNA, backbone not given here) [ANP-Oligo 065] | −0.59
48 | AAAAAAAGCUUAAAAAAAA (RNA, backbone not given here) [ANP-Oligo 121] | 0.24
49 | AAAAAAACACGAAAAAAAA (RNA, backbone not given here) [ANP-Oligo 054] | −0.65
50 | AAAAAAAUAUUAAAAAAAA (RNA, backbone not given here) [ANP-Oligo 157] | 0.46
51 | AAAAAAAGGUUAAAAAAAA (RNA, backbone not given here) [ANP-Oligo 133] | 1.51
52 | AAAAAAAAGGCAAAAAAAA (RNA, backbone not given here) [ANP-Oligo 032] | −0.62
53 | AAAAAAACUGUAAAAAAAA (RNA, backbone not given here) [ANP-Oligo 094] | 0.9
54 | AAAAAAAUUACAAAAAAAA (RNA, backbone not given here) [ANP-Oligo 182] | 0.11
55 | AAAAAAAUCGCAAAAAAAA (RNA, backbone not given here) [ANP-Oligo 164] | −0.1
56 | AAAAAAAGUCGAAAAAAAA (RNA, backbone not given here) [ANP-Oligo 138] | 0.02

Same assay, conditions: donor 3; IL-12 index minus mean of all IL-12 indices of the donor

Row | Substance | adjusted IL-12 index
57 | AAAAAAAUGCUAAAAAAAA (chemistry not given here) [ANP-Oligo 175] | 1.46

Same assay, conditions: donor 3; poly-L-Arg complexed; 44 hours

Row | Substance | IL-12 in supernatant, mean of the two raw values of the duplicates
58 | AAAAAAAUGCUAAAAAAAA (chemistry not given here) [ANP-Oligo 175] | 1725 pg/mL

Same assay, conditions: donor 3; ratio to RNA9.2sense

Row | Substance | IL-12 index
59 | AAAAAAAUGCUAAAAAAAA (chemistry not given here) [ANP-Oligo 175] | 1.90

Same assay, conditions: summarized from all six donors

Row | Substance | adjusted IL-12 index
60 | AAAAAAAUUGUAAAAAAAA (RNA, backbone not given here) [ANP-Oligo 190] | 1.6
